Experiments:
[1] = target: T1, Tyrosine-protein phosphatase non-receptor type 1 (Homo sapiens) (UniProt P18031); test: Compound was tested for inhibition of Protein-tyrosine phosphatase 1B at a concentration of 10 uM in fluorometric assay using DiFMUP
T1 sequence (whole entry): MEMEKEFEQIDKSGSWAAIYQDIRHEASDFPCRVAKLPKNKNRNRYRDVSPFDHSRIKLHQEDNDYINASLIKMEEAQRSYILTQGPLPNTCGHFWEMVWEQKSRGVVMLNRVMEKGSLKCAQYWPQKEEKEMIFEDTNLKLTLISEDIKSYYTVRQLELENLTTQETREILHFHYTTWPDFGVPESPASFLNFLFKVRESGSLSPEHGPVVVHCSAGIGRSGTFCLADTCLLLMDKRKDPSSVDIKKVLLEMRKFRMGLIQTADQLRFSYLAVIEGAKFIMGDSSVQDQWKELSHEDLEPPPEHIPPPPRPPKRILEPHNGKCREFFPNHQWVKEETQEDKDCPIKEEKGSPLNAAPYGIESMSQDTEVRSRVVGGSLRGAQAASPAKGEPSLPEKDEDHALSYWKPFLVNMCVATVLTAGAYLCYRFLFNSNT

[2] = target: Receptor-type tyrosine-protein phosphatase C (CD45) (Homo sapiens) (UniProt P08575); test: Compound was tested for inhibition of CD45 tyrosine phosphatase at a concentration of 10 uM in fluorometric assay using DiFMUP
Receptor-type tyrosine-protein phosphatase C (CD45) (Homo sapiens), sequence (P08575 whole entry, looked up): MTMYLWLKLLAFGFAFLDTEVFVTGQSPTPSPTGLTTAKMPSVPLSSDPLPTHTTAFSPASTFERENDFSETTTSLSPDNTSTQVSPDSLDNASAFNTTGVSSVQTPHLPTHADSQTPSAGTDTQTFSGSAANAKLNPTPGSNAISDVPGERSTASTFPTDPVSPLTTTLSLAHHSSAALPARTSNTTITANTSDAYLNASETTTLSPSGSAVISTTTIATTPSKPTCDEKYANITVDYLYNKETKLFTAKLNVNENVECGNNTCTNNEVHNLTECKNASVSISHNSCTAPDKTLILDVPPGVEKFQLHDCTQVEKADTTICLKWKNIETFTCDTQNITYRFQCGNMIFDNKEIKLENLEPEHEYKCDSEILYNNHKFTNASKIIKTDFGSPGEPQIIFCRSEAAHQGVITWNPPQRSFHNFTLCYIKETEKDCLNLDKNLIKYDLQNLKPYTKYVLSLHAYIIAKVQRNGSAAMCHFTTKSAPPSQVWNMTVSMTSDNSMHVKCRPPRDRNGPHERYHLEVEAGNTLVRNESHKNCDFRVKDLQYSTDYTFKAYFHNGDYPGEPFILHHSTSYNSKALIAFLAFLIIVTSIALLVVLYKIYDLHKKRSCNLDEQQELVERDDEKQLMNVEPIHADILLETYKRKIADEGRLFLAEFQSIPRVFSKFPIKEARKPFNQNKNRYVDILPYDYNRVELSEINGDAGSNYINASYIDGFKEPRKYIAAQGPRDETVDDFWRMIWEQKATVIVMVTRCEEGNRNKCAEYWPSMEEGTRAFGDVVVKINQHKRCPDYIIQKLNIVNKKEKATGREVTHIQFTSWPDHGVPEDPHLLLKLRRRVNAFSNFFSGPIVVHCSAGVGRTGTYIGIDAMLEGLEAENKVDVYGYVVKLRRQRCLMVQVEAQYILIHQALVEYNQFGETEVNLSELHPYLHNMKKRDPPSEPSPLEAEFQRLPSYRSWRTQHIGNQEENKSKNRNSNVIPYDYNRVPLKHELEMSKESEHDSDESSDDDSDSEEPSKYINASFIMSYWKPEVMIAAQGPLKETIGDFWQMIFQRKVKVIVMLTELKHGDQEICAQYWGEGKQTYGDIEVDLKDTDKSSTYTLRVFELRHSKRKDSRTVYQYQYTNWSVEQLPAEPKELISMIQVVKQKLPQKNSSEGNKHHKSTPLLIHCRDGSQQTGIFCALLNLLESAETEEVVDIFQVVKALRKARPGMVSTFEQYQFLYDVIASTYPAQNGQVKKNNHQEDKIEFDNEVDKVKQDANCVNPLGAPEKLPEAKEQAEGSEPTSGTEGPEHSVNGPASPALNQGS

[3] = target: T2, Tyrosine-protein phosphatase non-receptor type 2 (Homo sapiens) (UniProt P17706); test: Compound was tested for inhibition of T-cell protein tyrosine phosphatase TC-PTP at a concentration of 100 uM in fluorometric assay using DiFMUP
T2 sequence (whole entry): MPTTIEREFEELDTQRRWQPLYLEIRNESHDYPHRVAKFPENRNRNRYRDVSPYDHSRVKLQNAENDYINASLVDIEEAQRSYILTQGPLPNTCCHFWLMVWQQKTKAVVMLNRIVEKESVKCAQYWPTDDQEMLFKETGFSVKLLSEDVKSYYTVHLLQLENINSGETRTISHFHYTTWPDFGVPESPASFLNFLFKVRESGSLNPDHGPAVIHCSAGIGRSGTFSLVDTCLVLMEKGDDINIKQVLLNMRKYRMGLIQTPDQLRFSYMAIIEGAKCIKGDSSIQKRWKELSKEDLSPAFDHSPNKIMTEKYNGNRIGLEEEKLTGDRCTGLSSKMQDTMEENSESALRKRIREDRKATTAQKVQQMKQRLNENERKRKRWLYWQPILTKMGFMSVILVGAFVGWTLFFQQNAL

[4] = target: Receptor-type tyrosine-protein phosphatase C (CD45) (Homo sapiens) (UniProt P08575); test: Compound was tested for inhibition of CD45 tyrosine phosphatase at a concentration of 100 uM in fluorometric assay using DiFMUP
[5] = target: T1, Tyrosine-protein phosphatase non-receptor type 1 (Homo sapiens); test: Compound was tested for inhibition of Protein-tyrosine phosphatase 1B at a concentration of 100 uM in fluorometric assay using DiFMUP
[6] = target: Receptor-type tyrosine-protein phosphatase F (Homo sapiens) (UniProt P10586); test: Compound was tested for inhibition of Lar tyrosine phosphatase at a concentration of 10 uM in fluorometric assay using DiFMUP
Receptor-type tyrosine-protein phosphatase F (Homo sapiens), sequence (P10586 whole entry): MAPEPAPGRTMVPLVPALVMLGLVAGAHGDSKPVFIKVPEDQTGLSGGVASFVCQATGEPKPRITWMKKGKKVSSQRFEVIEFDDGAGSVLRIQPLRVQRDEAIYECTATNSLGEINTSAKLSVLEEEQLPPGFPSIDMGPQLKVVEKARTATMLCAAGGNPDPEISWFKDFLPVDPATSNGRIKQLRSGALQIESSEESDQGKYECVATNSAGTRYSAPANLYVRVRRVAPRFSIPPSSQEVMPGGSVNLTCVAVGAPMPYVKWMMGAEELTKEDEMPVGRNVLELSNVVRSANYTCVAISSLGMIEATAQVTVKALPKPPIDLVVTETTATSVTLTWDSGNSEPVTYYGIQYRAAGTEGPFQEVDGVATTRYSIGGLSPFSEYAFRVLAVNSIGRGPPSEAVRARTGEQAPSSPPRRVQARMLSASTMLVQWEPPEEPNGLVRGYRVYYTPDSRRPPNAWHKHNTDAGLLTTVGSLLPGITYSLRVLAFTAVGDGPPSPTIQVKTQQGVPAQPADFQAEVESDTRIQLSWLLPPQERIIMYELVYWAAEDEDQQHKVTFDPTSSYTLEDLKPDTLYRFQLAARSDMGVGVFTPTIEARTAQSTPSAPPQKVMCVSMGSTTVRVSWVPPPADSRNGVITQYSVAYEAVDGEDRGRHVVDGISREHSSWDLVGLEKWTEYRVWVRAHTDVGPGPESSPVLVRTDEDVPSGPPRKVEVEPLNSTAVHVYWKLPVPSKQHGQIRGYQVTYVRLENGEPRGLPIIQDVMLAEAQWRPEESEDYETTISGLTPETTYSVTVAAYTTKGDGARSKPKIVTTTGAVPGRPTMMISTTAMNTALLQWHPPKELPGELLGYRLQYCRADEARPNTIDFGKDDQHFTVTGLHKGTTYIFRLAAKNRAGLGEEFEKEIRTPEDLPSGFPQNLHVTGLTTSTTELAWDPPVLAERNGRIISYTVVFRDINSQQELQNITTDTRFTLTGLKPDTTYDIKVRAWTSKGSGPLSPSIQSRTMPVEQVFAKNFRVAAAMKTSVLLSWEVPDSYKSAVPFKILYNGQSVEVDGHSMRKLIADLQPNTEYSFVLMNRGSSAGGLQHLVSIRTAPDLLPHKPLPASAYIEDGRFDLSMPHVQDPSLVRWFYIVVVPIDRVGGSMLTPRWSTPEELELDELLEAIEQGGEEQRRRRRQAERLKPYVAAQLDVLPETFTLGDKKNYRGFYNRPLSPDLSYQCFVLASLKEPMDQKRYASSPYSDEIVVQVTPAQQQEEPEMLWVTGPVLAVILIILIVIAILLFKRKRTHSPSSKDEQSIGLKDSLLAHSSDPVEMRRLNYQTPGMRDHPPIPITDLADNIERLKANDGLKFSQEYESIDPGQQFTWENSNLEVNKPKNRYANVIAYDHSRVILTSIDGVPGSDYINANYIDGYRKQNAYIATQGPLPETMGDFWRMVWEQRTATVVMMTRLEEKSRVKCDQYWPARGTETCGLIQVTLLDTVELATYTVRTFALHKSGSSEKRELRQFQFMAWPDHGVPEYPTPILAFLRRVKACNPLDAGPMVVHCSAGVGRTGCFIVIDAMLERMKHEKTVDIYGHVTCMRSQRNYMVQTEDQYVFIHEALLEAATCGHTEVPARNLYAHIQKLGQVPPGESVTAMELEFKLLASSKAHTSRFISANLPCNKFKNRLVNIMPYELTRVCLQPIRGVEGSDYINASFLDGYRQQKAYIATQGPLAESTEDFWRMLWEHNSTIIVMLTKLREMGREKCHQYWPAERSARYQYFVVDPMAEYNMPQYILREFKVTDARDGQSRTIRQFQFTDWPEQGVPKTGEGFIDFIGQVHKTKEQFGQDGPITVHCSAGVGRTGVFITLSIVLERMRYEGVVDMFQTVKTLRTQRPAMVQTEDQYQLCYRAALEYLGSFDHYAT

[7] = target: T2, Tyrosine-protein phosphatase non-receptor type 2 (Homo sapiens); test: Compound was tested for inhibition of T-cell protein tyrosine phosphatase TC-PTP at a concentration of 10 uM in fluorometric assay using DiFMUP
[8] = target: Receptor-type tyrosine-protein phosphatase F (Homo sapiens) (UniProt P10586); test: Compound was tested for inhibition of Lar tyrosine phosphatase at a concentration of 100 uM in fluorometric assay using DiFMUP

| SMILES | inhibition [1] [%] | inhibition [2] [%] | inhibition [3] [%] | inhibition [4] [%] | inhibition [5] [%] | inhibition [6] [%] | inhibition [7] [%] | inhibition [8] [%] |
| --- | --- | --- | --- | --- | --- | --- | --- | --- |
| CC(Cn1c(=O)n2n(c1=O)C(C(=O)NC(Cc1ccc3sccc(=O)c3c1)C(=O)O)C=CC2CCCC(=O)O)c1ccccc1 (configuration not stated) | 55 | 15 | 90 | 55 | 95 | 10 | 20 | 50 |
| O=C(O)CCCC1C=CC(C(=O)NC(Cc2ccc3sccc(=O)c3c2)C(=O)O)n2c(=O)n(-c3ccc(Oc4ccccc4)cc3)c(=O)n21 (configuration not stated) | 75 | 20 | 100 | 70 | 100 | 50 | 85 | 70 |
| O=C(O)CCCC1C=CC(C(=O)NC(Cc2ccc3sccc(=O)c3c2)C(=O)O)n2c(=O)n(Cc3cc(F)ccc3F)c(=O)n21 (configuration not stated) | 0 | 5 | 100 | 50 | 95 | 25 | 85 | 50 |
| O=C(O)CCCC1C=CC(C(=O)NC(Cc2ccc3sccc(=O)c3c2)C(=O)O)n2c(=O)n(CC3CCCCC3)c(=O)n21 (configuration not stated) | 40 | 20 | 20 | 70 | 70 | 0 | 10 | 10 |

From ChEMBL document CHEMBL1136070, “Design and synthesis of phosphotyrosine mimetics” (Bioorg Med Chem Lett, 2003)
